In article PMC3885546, “Structural Determinants of the 5′-Methylthioinosine Specificity of Plasmodium Purine Nucleoside Phosphorylase” (PLoS ONE, 2014):
Substitutions are numbered along the chain they refer to.

Columns and labels:
Type in all cases: biochemical
PfPNP Tyr160Ala = target: T1, PfPNP Tyr160Ala (Plasmodium falciparum, UniProt Q8I3X4, Y160A); assay: Substrate kinetics, coupled assay; conditions: for Km / kcat / reduced catalytic efficiency compared to wild-type PfPNP: substrate = label
T1 construct: made in house; host or cells: Escherichia coli Top 10
T1 sequence (Q8I3X4 1-245 Y160A): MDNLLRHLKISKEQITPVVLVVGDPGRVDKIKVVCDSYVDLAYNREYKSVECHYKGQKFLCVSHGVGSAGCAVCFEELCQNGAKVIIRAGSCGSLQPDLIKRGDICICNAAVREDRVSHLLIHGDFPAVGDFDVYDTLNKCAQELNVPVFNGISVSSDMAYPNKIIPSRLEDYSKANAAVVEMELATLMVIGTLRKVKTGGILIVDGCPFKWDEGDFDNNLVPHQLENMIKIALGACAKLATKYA
Description: (§1) Kinetic assays were completed in 50 mM KH2PO4 at pH 7.4 measuring phosphorylysis of inosine or MTI by PNP in a coupled reaction with 60 milliunits/ml xanthine oxidase to convert hypoxanthine to uric acid. Formation of uric acid was measured at 293 nm wavelength (E293 = 12.9 mM^−1 cm^−1), [20]. In cases where activity for MTI was low, increased protein concentration (10 µg/ml) was used to check enzyme function. Assays were performed with excess substrate in the presence of inhibitors. Inhibition studies measured both initial (Ki) and slow onset inhibition (Ki*) for inhibitors. The initial onset inhibition was analyzed by using the following equation: ν ο = (k cat×S)/(K m(1+I/Ki)+S), ν ο is the steady state rate, k cat catalytic rate, S is substrate concentration, Km is Michealis constant for inosine, I is inhibitor concentration, and Ki is the equilibrium dissociation constant.

PfPNP Tyr47Ala = target: T2, PfPNP Tyr47Ala (Plasmodium falciparum, UniProt Q8I3X4, Y47A); assay: Substrate kinetics, coupled assay; conditions: for Km / kcat: substrate = label
T2 construct: made in house; host or cells: Escherichia coli Top 10
T2 sequence (Q8I3X4 1-245 Y47A): T1 sequence (Q8I3X4 1-245 Y160A) with Y47A, A160Y
Description: as §1

PfPNP Val73Ser = target: T3, PfPNP Val73Ser (Plasmodium falciparum, UniProt Q8I3X4, V73S); assay: Substrate kinetics, coupled assay; conditions: for Km / kcat: substrate = label
T3 construct: made in house; host or cells: Escherichia coli Top 10
T3 sequence (Q8I3X4 1-245 V73S): T1 sequence (Q8I3X4 1-245 Y160A) with V73S, A160Y
Description: as §1

PfPNP Val73Ile = target: T4, PfPNP Val73Ile (Plasmodium falciparum, UniProt Q8I3X4, V73I); assay: Substrate kinetics, coupled assay; conditions: for Km / kcat: substrate = label
T4 construct: made in house; host or cells: Escherichia coli Top 10
T4 sequence (Q8I3X4 1-245 V73I): T1 sequence (Q8I3X4 1-245 Y160A) with V73I, A160Y
Description: as §1

PfPNP His7Ala = target: T5, PfPNP His7Ala (Plasmodium falciparum, UniProt Q8I3X4, H7A); assay: Substrate kinetics, coupled assay; conditions: for Km / kcat: substrate = label
T5 construct: made in house; host or cells: Escherichia coli Top 10
T5 sequence (Q8I3X4 1-245 H7A): T1 sequence (Q8I3X4 1-245 Y160A) with H7A, A160Y
Description: as §1

PfPNP Val66Ile/Val73Ile = target: T6, PfPNP Val66Ile/Val73Ile (Plasmodium falciparum, UniProt Q8I3X4, V66I/V73I); assay: Substrate kinetics, coupled assay; conditions: for Km / kcat: substrate = label
T6 construct: made in house; host or cells: Escherichia coli Top 10
T6 sequence (Q8I3X4 1-245 V66I/V73I): T1 sequence (Q8I3X4 1-245 Y160A) with V66I, V73I, A160Y
Description: as §1

PfPNP Val73Ile/Tyr160Phe = target: T7, PfPNP Val73Ile/Tyr160Phe (Plasmodium falciparum, UniProt Q8I3X4, V73I/Y160F); assay: Substrate kinetics, coupled assay; conditions: for Km / kcat: substrate = label
T7 construct: made in house; host or cells: Escherichia coli Top 10
T7 sequence (Q8I3X4 1-245 V73I/Y160F): T1 sequence (Q8I3X4 1-245 Y160A) with V73I, A160F
Description: as §1

PfPNP (wild type) = target: T8, PfPNP (wild type) (Plasmodium falciparum, UniProt Q8I3X4); assay: Substrate kinetics, xanthine oxidase coupled phosphorolysis assay
T8 construct: made in house; host or cells: Escherichia coli Top 10
T8 sequence (Q8I3X4 1-245): T1 sequence (Q8I3X4 1-245 Y160A) with A160Y
Description: as §1

Molecule	Km (PfPNP Tyr160Ala)	kcat (PfPNP Tyr160Ala)	reduced catalytic efficiency compared to wild-type PfPNP (PfPNP Tyr160Ala)	Km (PfPNP Tyr47Ala)	kcat (PfPNP Tyr47Ala)	Km (PfPNP Val73Ser)	kcat (PfPNP Val73Ser)	Km (PfPNP Val73Ile)	kcat (PfPNP Val73Ile)	Km (PfPNP His7Ala)	kcat (PfPNP His7Ala)	Km (PfPNP Val66Ile/Val73Ile)	kcat (PfPNP Val66Ile/Val73Ile)	Km (PfPNP Val73Ile/Tyr160Phe)	kcat (PfPNP Val73Ile/Tyr160Phe)	also measured
5′-methylthioinosine	0.2 ± 0.059 mM	0.09 ± 0.01 s⁻¹	~1000 fold	960 µM	0.02 ± 0 s⁻¹	2.1 mM	0.02 ± 0 s⁻¹	11 ± 8 µM	0.81 ± 0.03 s⁻¹	2.6 ± 2 µM	0.29 ± 0.21 s⁻¹	15 ± 5 µM	0.91 ± 0.20 s⁻¹	60 ± 33 µM	0.28 ± 0.04 s⁻¹	kcat (PfPNP (wild type); substrate = label): 0.83 ± 0.03 s⁻¹; Km (PfPNP (wild type); substrate = label, 50 mM KH2PO4 pH 7.4, mean ± SD): 8.8 ± 0.2 µM
OC[C@H]1O[C@@H](n2cnc3c(O)ncnc32)[C@H](O)[C@@H]1O [Inosine, inosine]	5.4 ± 0.12 mM	0.1 ± 0.0 s⁻¹	~1000 fold	200 µM	0.04 ± 0.00 s⁻¹	0.005 mM	0.2 ± 0.0 s⁻¹	13 ± 2 µM	1.9 ± 0.7 s⁻¹	45 ± 7 µM	1.1 ± 0.5 s⁻¹	28 ± 11 µM	4.6 ± 0.6 s⁻¹	3.6 ± 1.3 µM	0.59 ± 0.13 s⁻¹	Ino/MTI kcat/Km Ratio (PfPNP Tyr160Ala): 0.5; Ino/MTI kcat/Km Ratio (PfPNP Tyr47Ala): 9.3; Ino/MTI kcat/Km Ratio (PfPNP Val73Ser): 4100; Ino/MTI kcat/Km Ratio (PfPNP Val73Ile): 2.0; Ino/MTI kcat/Km Ratio (PfPNP His7Ala): 2.2; Ino/MTI kcat/Km Ratio (PfPNP Val66Ile/Val73Ile): 2.7; Ino/MTI kcat/Km Ratio (PfPNP Val73Ile/Tyr160Phe): 35; Ino/MTI kcat/Km Ratio (PfPNP (wild type)): 1.6
